Measurements taken from patent US5747448A, “Derivatives of cyclodepsipeptide PF 1022” (Meiji Seika Kaisha, Ltd., priority 1993, dated 1998).
Like-named read-outs stand apart in the source and are kept apart here.

Tests used:
[1] = test system: Haemonchus contortus; experiment: In vivo Anthelmintic Activity Test on Nematodes in sheep (egg excretion); parameters: key: "0" when there were no anthelmintic activities; "2" when excretion of parasite's eggs was observed; "3" when excretion of parasite's eggs stopped, that is, parasitic worms were removed completely; settings: parasitic worms H, oral gelatin capsule
Source text: (§1) Test 2 In vivo Anthelmintic Activity Test on Nematodes To each sheep which had artificially been infected with Trichostrongylus colubriformis (hereinafter abbreviated as "T") and Haemonchus contortus (hereinafter abbreviated as […]), respectively, a test substance weighed in a dose accurately calculated from the weight […] of the sheep was orally administered in the form of a gelatin capsule. The number of parasite's eggs excreted with feces from the sheep was counted quantitatively before and after the administration so that the degree of anthelmintic effects was determined. The anthelmintic effects are evaluated by rated numeral 0, 1, 2 or 3. The anthelmintic effects are rated "0" when there were no anthelmintic activities, "2" when excretion of parasite's eggs was observed, and "3" when excretion of parasite's eggs stopped, that is, parasitic worms were removed completely.

[2] = test system: Trichostrongylus colubriformis; experiment: as above; parameters: key: "0" when there were no anthelmintic activities; "2" when excretion of parasite's eggs was observed; "3" when excretion of parasite's eggs stopped, that is, parasitic worms were removed completely; settings: parasitic worms T, oral gelatin capsule, 0.5 mg/kg
Source text: as §1

[3] = test system: Nippostrongylus brasillensis; experiment: Anthelmintic effects on a rat intestinal nematode (N. brasillensis-infected rats); assay type: in vivo; settings: male Wistar rats; for Number of remaining worms (average value ± SD): 10 mg/kg p.o. 7 days after inoculation, autopsy 10 days after inoculation; for % Effectiveness: 10 mg/kg p.o., compared with infected control group
Experimental: Anthelmintic effects of certain PF1022 derivatives on a rat intestinal nematode were tested in accordance with the following method.
Sixteen male Wistar rats were divided into eight groups (two rats per group), and about 2,000 larval worms of Nippostrongylus brasillensis were hypodermically inoculated per rat. Seven days after the inoculation, PF1022, PF1022E, PF1022-002, PF1022-003, PF1022-209, PF1022-218 and PF1022-219 were, as test substances, forcedly administered p.o. to the rats in the groups, respectively, in an amount of 10 mg/kg per rat. Upon administration, each test substance (8 mg) was dissolved in 0.2 ml of dimethyl sulfoxide and then, the resultant solution was diluted with distilled water to give a 2 ml suspension. Ten days after the inoculation,the rats were each subjected to autopsy and imaginal worms parasitic on the small intestines were counted.
As the test results, the average of remaining worms in each of the eight groups and the percent effectiveness of the test substance in each group as compared with that of the infected control group are shown in Table 4.

[4] = test system: fowl roundworms; experiment: Fowl Roundworm Eliminating Test; assay type: in vivo; settings: infected fowls, worms counted to day 7
Experimental: Test 1 Fowl Roundworm Eliminating Test Fowls (three fowls per group), which had been artificially infected with fowl roundworms and whose infection therewith had been confirmed by scatoscopy, were used as experimental animals. Upon administration of each test substance, the test substance weighed in a dose (mg) accurately calculated on the basis of the body weight (kg) of each fowl was suspended in carboxymethylcellulose-containing water, and the resulting suspension was administered orally as a single dose unit using a stomach tube. After the administration, the worms eliminated from the fowls were counted daily. Seven days after the administration, the fowl was sacrificed and autopsied and the worms remaining in its intestinal tract were counted. The percent elimination was calculated in accordance with the following calculation equation: [formula] Each test substance is indicated by the corresponding substance code name shown above in Table 1.

[5] = amide bond, 24-membered ring, THF/DMF

Compound: CC(C)CC1C(=O)OC(Cc2ccc(OCc3ccccc3)cc2)C(=O)N(C)C(CC(C)C)C(=O)OC(C)C(=O)N(C)C(CC(C)C)C(=O)OC(Cc2ccc(OCc3ccccc3)cc2)C(=O)N(C)C(CC(C)C)C(=O)OC(C)C(=O)N1C [PF1022-201, cyclo-(L-MeLeu-D-Lac-L-MeLeu-D-TYRA(OBn))2]
- Degree of effects ([1]; 0.1 mg/kg): 1
- Degree of effects ([1]; 0.25 mg/kg): 3

Compound: CC(C)C[C@@H]1NC(=O)[C@@H](C)OC(=O)[C@H](CC(C)C)N(C)C(=O)[C@@H](Cc2ccccc2)OC(=O)[C@H](CC(C)C)NC(=O)[C@@H](C)OC(=O)[C@H](CC(C)C)N(C)C(=O)[C@@H](Cc2ccccc2)OC1=O [PF1022-219, cyclo-(L-MeLeu-D-Lac-L-Leu-D-PhLac)2]
- Degree of effects [2]: 3
- Number of remaining worms (average value ± SD) [3]: 2084.5
- % Effectiveness [3]: 0%

Compound: CC(C)C[C@H]1C(=O)O[C@H](Cc2ccc(OC(C)(C)C)cc2)C(=O)N(C)[C@@H](CC(C)C)C(=O)O[C@H](C)C(=O)N(C)[C@@H](CC(C)C)C(=O)O[C@H](Cc2ccccc2)C(=O)N(C)[C@@H](CC(C)C)C(=O)O[C@H](C)C(=O)N1C [PF1022-215, cyclo-(L-MeLeu-D-PhLac-L-MeLeu-D-Lac-L-MeLeu-D-TYRA(O-t-Bu)-L-MeLeu-D-Lac)]
- Degree of effects ([1]; 0.25 mg/kg): 3
- % Elimination ([4]; single oral dose 1.0 mg/kg): 37%
- % Elimination ([4]; single oral dose 2.0 mg/kg): 98%

Compound: CC(C)C[C@H]1C(=O)O[C@H](Cc2ccccc2)C(=O)N(C)[C@@H](CC(C)C)C(=O)O[C@H](C)C(=O)N(C)[C@@H](CC(C)C)C(=O)O[C@H](Cc2ccccc2)C(=O)N(C)[C@@H](CC(C)C)C(=O)O[C@H](C)C(=O)N1C [PF1022, Cyclo-(L-MeLeu-D-Lac-L-MeLeu-D-PhLac-L-MeLeu-D-Lac-L-MeLeu-D-PhLac), reference compound]
- Degree of effects ([1]; 0.05 mg/kg): 3
- Degree of effects [2]: 3
- % Elimination ([4]; single oral dose 0.5 mg/kg): 50-70%
- % Elimination ([4]; single oral dose 1.0 mg/kg): 60-86%
- % Elimination ([4]; single oral dose 2.0 mg/kg): 100%
- Number of remaining worms (average value ± SD) [3]: 403 ± 32.5
- % Effectiveness ([3]; 10 mg/kg): 80%
- % Effectiveness ([3]; listed as PF 1022, 10 mg/kg): 80.2%

Compound: CCCC[C@H]1OC(=O)[C@H](CC(C)C)N(C)C(=O)[C@@H](Cc2ccccc2)OC(=O)[C@H](CC(C)C)N(C)C(=O)[C@@H](C)OC(=O)[C@H](CC(C)C)N(C)C(=O)[C@@H](Cc2ccccc2)OC(=O)[C@H](CC(C)C)N(C)C1=O
- ring closure, isolated yield ([5]; from H-MeLeu-dLac-MeLeu-dPhLac-MeLeu-dnorLEUA-MeLeu-dPhLac-OH, EDCI.HCl/HOBt/NMM/LiCl/NaCl/KCl/CsCl, 0.76 mM): 82%

Compound: CC(C)C[C@@H]1NC(=O)[C@@H](Cc2ccccc2)OC(=O)[C@H](CC(C)C)N(C)C(=O)[C@@H](C)OC(=O)[C@H](CC(C)C)NC(=O)[C@@H](Cc2ccccc2)OC(=O)[C@H](CC(C)C)N(C)C(=O)[C@@H](C)OC1=O [Cyclo-(L-MeLeu-D-PhLac-L-Leu-D-Lac)2]
- ring closure, isolated yield ([5]; from H-MeLeu-dPhLac-Leu-dLac-MeLeu-dPhLac-Leu-dLac-OH, EDCI.HCl/HOBt/NMM, LiCl/KCl/NaCl/CsCl, 0.96 mM, 25.0 °C, 3 steps): 62%

Compound: CCCCCC[C@H]1OC(=O)[C@H](CC(C)C)N(C)C(=O)[C@@H](C)OC(=O)[C@H](CC(C)C)N(C)C(=O)[C@@H](CCCCCC)OC(=O)[C@H](CC(C)C)N(C)C(=O)[C@@H](C)OC(=O)[C@H](CC(C)C)N(C)C1=O [Cyclo-(L-MeLeu-D-OctA-L-MeLeu-D-Lac)2]
- ring closure, isolated yield ([5]; from H-MeLeu-dOctA-MeLeu-dLac-MeLeu-dOctA-MeLeu-dLac-OH, EDCI.HCl/HOBt/NMM/LiCl/NaCl/KCl/CsCl, 0.81 mM): 92%

Compound: CC(C)C[C@H]1OC(=O)[C@H](CC(C)C)N(C)C(=O)[C@@H](C)OC(=O)[C@H](CC(C)C)N(C)C(=O)[C@@H](Cc2ccccc2)OC(=O)[C@H](CC(C)C)N(C)C(=O)[C@@H](C)OC(=O)[C@H](CC(C)C)N(C)C1=O [PF1022-003, cyclo-(-L-MeLeu-D-Lac-L-MeLeu-D-PhLac-L-MeLeu-D-Lac-L-MeLeu-D-LEUA-)]
- % Elimination ([4]; single oral dose 10 mg/kg): 76%
- ring closure, isolated yield ([5]; from H-MeLeu-dLEUA-MeLeu-dLac-MeLeu-dPhLac-MeLeu-dLac-OH, EDCI.HCl/HOBt/NMM/KCl/CsCl, 3 steps): 44%
- Number of remaining worms (average value ± SD) [3]: 689 ± 48.1
- % Effectiveness [3]: 66.1%
